Data as given in ChEMBL document CHEMBL4052776, “Discovery of 3-morpholino-imidazole[1,5-a]pyrazine BTK inhibitors for rheumatoid arthritis” (Bioorg Med Chem Lett, 2017).

How the values were obtained:
[1] = target: T1, Tyrosine-protein kinase BTK (Homo sapiens, UniProt Q06187); experiment: Inhibition of BTK in human PBMC assessed as reduction in anti-IgM-induced MIP1beta
[2] = target: Tyrosine-protein kinase Fgr (Homo sapiens, UniProt P09769); experiment: Inhibition of FGR (unknown origin)
[3] = Half life in dog at 2 mg/kg administered as cassette dose; assay type: ADME, organism-based, Canis lupus familiaris; conditions: in vivo
[4] = Oral bioavailability in rat at 10 mg/kg; assay type: ADME, organism-based; conditions: in vivo
[5] = target: Tyrosine-protein kinase Lck (Homo sapiens, UniProt P06239); experiment: Inhibition of LCK (unknown origin)
[6] = target: Tyrosine-protein kinase Lyn (Homo sapiens, UniProt P07948); experiment: Inhibition of LYNB (unknown origin)
[7] = target: Protein-tyrosine kinase 6 (Homo sapiens, UniProt Q13882); experiment: Inhibition of PTK6 (unknown origin)
Sequence of Protein-tyrosine kinase 6 (Q13882 whole entry): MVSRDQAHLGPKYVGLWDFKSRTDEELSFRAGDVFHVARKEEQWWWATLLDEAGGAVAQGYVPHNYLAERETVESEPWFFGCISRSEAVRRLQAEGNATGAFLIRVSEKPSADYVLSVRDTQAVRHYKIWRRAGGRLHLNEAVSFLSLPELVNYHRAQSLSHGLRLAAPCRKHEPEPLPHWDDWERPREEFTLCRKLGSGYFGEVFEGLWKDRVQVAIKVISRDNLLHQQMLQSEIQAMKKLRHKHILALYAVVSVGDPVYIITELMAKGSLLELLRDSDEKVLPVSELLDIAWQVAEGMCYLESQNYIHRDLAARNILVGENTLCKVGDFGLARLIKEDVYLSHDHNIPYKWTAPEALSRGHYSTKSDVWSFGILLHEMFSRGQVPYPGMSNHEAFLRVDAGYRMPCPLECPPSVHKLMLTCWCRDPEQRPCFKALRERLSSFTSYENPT

[8] = target: Tyrosine-protein kinase FRK (Homo sapiens, UniProt P42685); experiment: Inhibition of FRK (unknown origin)
Sequence of Tyrosine-protein kinase FRK (P42685 whole entry): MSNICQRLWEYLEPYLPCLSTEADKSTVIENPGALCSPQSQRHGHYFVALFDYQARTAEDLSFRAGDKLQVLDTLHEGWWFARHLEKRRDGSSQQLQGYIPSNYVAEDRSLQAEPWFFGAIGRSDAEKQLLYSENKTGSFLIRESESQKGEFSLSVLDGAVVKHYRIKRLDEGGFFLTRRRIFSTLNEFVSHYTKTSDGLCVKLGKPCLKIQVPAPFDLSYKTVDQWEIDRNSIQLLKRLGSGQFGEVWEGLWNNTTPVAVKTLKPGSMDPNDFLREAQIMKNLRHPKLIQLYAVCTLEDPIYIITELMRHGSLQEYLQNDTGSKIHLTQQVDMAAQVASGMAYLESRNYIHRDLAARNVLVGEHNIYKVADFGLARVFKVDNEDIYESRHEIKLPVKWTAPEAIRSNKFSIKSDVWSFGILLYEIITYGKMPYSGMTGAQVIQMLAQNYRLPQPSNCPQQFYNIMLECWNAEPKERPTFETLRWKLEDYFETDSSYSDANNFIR

[9] = target: T1, Tyrosine-protein kinase BTK; experiment: Inhibition of recombinant full-length His6-tagged BTK (unknown origin) expressed in baculovirus infected Sf9 cells using biotinylated A5 peptide as substrate preincubated for 60 mins followed by substrate addition measured after 120 mins by LANCE TR-FRET assay
[10] = Total clearance in rat plasma at 10 mg/kg; assay type: ADME, organism-based
[11] = target: Tyrosine-protein kinase Yes (Homo sapiens, UniProt P07947); experiment: Inhibition of YES1 (unknown origin)
Sequence of Tyrosine-protein kinase Yes (P07947 whole entry): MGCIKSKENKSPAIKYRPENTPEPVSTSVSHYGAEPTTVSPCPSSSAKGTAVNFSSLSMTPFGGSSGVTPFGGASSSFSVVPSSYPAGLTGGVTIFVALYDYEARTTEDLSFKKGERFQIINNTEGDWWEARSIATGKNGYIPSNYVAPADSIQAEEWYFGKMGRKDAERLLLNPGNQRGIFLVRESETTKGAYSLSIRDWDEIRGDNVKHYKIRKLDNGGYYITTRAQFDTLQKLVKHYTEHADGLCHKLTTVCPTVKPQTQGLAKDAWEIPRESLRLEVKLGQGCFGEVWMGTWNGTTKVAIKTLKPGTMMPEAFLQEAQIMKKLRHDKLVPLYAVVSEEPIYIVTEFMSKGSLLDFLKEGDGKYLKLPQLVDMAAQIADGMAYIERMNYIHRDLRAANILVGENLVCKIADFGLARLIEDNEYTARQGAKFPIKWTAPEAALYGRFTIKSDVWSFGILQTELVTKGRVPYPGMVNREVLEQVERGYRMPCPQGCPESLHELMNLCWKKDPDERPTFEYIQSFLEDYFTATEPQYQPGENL

[12] = Half life in rat at 10 mg/kg; assay type: ADME, organism-based; conditions: in vivo
[13] = target: Tyrosine-protein kinase Srms (Homo sapiens, UniProt Q9H3Y6); experiment: Inhibition of SRMS (unknown origin)
Sequence of Tyrosine-protein kinase Srms (Q9H3Y6 whole entry): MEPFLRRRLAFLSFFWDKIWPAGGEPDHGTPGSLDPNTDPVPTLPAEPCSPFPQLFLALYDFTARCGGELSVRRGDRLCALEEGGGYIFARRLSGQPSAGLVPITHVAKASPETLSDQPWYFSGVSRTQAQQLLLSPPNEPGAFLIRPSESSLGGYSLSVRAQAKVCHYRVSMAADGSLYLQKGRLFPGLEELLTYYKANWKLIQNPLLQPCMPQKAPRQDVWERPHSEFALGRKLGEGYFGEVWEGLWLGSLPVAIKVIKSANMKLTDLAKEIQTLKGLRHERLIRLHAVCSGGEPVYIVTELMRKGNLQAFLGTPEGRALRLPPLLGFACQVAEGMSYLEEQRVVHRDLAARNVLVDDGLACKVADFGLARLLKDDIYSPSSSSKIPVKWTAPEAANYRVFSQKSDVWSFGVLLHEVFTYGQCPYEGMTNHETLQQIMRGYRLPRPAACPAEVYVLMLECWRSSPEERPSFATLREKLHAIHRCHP

[14] = target: Proto-oncogene tyrosine-protein kinase Src (Homo sapiens, UniProt P12931); experiment: Inhibition of SRC (unknown origin)
[15] = target: T2, Cytoplasmic tyrosine-protein kinase BMX (Homo sapiens, UniProt P51813); experiment: Inhibition of BMX (unknown origin)
T2 sequence (P51813 whole entry): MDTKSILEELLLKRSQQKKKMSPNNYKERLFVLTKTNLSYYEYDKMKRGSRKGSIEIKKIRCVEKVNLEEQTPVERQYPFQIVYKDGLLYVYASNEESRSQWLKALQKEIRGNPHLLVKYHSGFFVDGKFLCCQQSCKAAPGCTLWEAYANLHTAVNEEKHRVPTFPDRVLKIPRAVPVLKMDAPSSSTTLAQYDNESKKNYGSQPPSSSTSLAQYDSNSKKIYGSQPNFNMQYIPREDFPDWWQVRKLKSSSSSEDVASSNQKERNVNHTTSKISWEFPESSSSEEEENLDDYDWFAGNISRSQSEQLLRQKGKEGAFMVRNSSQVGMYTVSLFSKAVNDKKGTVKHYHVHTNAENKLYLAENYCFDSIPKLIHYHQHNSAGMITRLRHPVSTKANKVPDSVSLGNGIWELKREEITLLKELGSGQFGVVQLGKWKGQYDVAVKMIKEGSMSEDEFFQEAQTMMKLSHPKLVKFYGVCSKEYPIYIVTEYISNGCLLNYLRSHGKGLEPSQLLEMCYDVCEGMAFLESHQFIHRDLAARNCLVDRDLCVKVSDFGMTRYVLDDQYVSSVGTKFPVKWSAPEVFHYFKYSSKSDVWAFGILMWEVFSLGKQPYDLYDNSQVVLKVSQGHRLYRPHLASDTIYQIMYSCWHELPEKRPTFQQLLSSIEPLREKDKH

[16] = target: Tyrosine-protein kinase Fyn (Homo sapiens, UniProt P06241); experiment: Inhibition of FYN (unknown origin)
[17] = Total clearance in dog plasma at 2 mg/kg administered as cassette dose; assay type: ADME, organism-based, Canis lupus familiaris
[18] = target: Tyrosine-protein kinase Blk (Homo sapiens, UniProt P51451); experiment: Inhibition of BLK (unknown origin)
[19] = target: T3, Tyrosine-protein kinase Tec (Homo sapiens, UniProt P42680); experiment: Inhibition of TEC (unknown origin)
T3 sequence (P42680 whole entry): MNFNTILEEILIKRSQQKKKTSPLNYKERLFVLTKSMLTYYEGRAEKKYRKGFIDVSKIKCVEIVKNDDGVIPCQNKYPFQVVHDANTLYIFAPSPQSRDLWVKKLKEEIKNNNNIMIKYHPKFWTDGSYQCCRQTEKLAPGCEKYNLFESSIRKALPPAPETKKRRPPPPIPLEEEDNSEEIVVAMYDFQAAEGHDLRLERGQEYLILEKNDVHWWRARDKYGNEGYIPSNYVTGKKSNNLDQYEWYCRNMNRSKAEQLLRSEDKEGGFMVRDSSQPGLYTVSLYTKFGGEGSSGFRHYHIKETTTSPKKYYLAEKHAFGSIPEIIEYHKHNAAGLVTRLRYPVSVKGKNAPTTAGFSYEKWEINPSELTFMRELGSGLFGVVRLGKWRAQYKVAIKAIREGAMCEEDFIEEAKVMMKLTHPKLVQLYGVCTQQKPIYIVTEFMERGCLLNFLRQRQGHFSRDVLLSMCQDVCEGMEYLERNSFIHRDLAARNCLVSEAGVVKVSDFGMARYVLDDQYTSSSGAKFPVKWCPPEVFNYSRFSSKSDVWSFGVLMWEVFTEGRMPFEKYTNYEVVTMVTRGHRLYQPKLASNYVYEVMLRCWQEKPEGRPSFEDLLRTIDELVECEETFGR

[20] = target: Receptor tyrosine-protein kinase erbB-4 (Homo sapiens, UniProt Q15303); experiment: Inhibition of ERBB4 (unknown origin)
Sequence of Receptor tyrosine-protein kinase erbB-4 (Q15303 whole entry): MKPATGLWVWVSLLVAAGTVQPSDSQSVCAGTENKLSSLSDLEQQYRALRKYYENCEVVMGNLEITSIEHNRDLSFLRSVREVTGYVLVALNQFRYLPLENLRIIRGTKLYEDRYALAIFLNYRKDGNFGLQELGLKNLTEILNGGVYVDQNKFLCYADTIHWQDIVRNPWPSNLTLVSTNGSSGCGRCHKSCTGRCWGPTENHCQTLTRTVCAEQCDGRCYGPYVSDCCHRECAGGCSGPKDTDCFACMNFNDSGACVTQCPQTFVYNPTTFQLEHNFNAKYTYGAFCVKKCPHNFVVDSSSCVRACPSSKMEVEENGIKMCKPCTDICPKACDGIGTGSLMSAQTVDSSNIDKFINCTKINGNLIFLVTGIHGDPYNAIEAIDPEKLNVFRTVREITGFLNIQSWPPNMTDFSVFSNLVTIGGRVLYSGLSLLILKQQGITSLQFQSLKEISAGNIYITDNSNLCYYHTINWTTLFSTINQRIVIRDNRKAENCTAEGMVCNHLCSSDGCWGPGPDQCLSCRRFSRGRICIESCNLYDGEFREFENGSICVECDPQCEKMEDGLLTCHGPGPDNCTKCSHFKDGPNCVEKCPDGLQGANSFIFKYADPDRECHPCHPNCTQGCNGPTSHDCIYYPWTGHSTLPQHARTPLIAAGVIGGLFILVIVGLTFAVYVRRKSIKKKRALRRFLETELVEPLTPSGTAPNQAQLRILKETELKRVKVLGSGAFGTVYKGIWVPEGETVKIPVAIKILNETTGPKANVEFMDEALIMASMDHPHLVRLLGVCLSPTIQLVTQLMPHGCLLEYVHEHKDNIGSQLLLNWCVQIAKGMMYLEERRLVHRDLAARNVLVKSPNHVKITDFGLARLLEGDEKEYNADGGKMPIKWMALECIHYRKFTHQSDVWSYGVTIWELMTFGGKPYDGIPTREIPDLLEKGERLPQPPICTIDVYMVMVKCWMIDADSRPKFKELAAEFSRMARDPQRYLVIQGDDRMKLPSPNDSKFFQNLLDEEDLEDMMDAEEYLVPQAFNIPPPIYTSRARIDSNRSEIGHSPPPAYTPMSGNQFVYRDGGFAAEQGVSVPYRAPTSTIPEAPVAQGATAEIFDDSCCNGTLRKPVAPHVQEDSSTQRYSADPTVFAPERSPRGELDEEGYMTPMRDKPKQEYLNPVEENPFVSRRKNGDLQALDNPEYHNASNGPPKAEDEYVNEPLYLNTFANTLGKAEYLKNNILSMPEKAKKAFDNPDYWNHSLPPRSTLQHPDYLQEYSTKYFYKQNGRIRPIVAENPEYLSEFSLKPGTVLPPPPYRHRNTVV

[21] = target: Tyrosine-protein kinase CSK (Homo sapiens, UniProt P41240); experiment: Inhibition of CSK (unknown origin)
Sequence of Tyrosine-protein kinase CSK (P41240 whole entry): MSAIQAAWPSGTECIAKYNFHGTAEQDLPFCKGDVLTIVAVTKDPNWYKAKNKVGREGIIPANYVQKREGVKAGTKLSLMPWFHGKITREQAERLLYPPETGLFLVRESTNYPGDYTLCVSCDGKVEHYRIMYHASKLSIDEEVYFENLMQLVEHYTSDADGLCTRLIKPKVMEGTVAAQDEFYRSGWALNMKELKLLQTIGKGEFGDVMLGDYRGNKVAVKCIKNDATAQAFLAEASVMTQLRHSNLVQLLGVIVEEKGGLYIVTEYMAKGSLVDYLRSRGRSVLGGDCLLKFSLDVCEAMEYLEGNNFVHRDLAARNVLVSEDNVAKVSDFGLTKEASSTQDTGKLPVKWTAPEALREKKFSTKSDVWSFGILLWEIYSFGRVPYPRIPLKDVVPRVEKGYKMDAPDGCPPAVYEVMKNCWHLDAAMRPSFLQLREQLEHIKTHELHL

[22] = target: T4, Tyrosine-protein kinase TXK (Homo sapiens, UniProt P42681); experiment: Inhibition of TXK (unknown origin)
T4 sequence (P42681 whole entry): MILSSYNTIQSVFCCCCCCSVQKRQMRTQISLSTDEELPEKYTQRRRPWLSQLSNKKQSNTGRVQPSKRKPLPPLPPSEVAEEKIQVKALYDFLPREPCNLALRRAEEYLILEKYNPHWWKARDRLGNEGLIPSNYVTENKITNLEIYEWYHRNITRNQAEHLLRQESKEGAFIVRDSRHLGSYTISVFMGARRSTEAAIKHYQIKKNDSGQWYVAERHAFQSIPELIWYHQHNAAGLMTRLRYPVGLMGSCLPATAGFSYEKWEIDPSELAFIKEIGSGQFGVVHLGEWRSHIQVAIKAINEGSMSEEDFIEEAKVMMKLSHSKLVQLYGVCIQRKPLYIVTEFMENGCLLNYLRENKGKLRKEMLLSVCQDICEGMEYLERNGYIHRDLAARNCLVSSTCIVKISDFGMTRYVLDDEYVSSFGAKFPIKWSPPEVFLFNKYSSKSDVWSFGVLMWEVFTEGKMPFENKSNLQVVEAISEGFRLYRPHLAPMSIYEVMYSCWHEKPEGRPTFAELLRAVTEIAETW

Homo sapiens [23] = organism: Homo sapiens; experiment: Selectivity ratio of IC50 for FYN (unknown origin) to IC50 for BTK (unknown origin)
Homo sapiens [24] = organism: Homo sapiens; experiment: Selectivity ratio of IC50 for CSK (unknown origin) to IC50 for BTK (unknown origin)
Homo sapiens [25] = organism: Homo sapiens; experiment: Selectivity ratio of IC50 for PTK6 (unknown origin) to IC50 for BTK (unknown origin)
Homo sapiens [26] = organism: Homo sapiens; experiment: Selectivity ratio of IC50 for FGR (unknown origin) to IC50 for BTK (unknown origin)
Homo sapiens [27] = organism: Homo sapiens; experiment: Selectivity ratio of IC50 for TEC (unknown origin) to IC50 for BTK (unknown origin)
[28] = target: Voltage-gated inwardly rectifying potassium channel KCNH2 (Homo sapiens, UniProt Q12809); experiment: Inhibition of human ERG by [35S]-MK499 displacement or iKr channel assay
Homo sapiens [29] = organism: Homo sapiens; experiment: Selectivity ratio of IC50 for FRK (unknown origin) to IC50 for BTK (unknown origin)
Homo sapiens [30] = organism: Homo sapiens; experiment: Selectivity ratio of IC50 for SRMS (unknown origin) to IC50 for BTK (unknown origin)
Homo sapiens [31] = organism: Homo sapiens; experiment: Selectivity ratio of IC50 for ERBB4 (unknown origin) to IC50 for BTK (unknown origin)
Homo sapiens [32] = organism: Homo sapiens; experiment: Selectivity ratio of IC50 for LYNB (unknown origin) to IC50 for BTK (unknown origin)
Homo sapiens [33] = organism: Homo sapiens; experiment: Selectivity ratio of IC50 for BLK (unknown origin) to IC50 for BTK (unknown origin)
Homo sapiens [34] = organism: Homo sapiens; experiment: Selectivity ratio of IC50 for YES1 (unknown origin) to IC50 for BTK (unknown origin)
Homo sapiens [35] = organism: Homo sapiens; experiment: Selectivity ratio of IC50 for SRC (unknown origin) to IC50 for BTK (unknown origin)
Homo sapiens [36] = organism: Homo sapiens; experiment: Selectivity ratio of IC50 for TXK (unknown origin) to IC50 for BTK (unknown origin)
Homo sapiens [37] = organism: Homo sapiens; experiment: Selectivity ratio of IC50 for LCK (unknown origin) to IC50 for BTK (unknown origin)
Homo sapiens [38] = organism: Homo sapiens; experiment: Selectivity ratio of IC50 for BMX (unknown origin) to IC50 for BTK (unknown origin)

T1 sequence (Q06187 whole entry): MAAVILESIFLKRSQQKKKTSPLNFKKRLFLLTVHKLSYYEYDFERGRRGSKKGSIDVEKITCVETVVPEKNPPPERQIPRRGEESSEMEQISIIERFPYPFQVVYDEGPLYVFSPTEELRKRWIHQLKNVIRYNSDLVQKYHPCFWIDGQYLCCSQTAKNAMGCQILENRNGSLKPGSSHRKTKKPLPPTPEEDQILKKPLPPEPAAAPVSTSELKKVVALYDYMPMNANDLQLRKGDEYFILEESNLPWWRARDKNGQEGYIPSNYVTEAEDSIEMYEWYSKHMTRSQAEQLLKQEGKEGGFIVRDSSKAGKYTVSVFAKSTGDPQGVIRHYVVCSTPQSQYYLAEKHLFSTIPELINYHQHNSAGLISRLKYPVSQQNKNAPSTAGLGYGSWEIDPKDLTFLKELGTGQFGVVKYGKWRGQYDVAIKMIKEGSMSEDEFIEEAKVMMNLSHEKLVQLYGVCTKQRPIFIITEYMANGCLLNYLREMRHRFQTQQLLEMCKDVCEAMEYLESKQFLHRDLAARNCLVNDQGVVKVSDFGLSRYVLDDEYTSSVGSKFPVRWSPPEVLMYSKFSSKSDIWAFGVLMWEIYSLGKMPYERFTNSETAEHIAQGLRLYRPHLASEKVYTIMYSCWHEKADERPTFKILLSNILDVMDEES
Sequence of Tyrosine-protein kinase Fgr (P09769 whole entry): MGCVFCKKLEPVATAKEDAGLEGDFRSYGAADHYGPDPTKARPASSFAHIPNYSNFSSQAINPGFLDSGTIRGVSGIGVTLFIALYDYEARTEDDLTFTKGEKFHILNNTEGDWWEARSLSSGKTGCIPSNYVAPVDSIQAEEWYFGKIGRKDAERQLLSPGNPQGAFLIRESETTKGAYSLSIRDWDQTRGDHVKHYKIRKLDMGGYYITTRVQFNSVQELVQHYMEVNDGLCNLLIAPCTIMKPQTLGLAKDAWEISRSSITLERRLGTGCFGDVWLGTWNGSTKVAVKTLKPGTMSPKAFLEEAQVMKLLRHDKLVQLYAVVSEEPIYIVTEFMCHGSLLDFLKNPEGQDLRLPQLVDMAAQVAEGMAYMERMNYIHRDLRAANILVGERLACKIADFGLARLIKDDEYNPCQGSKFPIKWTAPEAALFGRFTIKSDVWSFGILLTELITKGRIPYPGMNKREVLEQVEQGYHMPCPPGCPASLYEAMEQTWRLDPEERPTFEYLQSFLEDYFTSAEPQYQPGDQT

Row | Structure (SMILES) | IC50 [1] | IC50 [2] | half-life [3] | bioavailability [4] | IC50 [5] | IC50 [6] | IC50 [7] | IC50 [8] | IC50 [9] | clearance [10] | IC50 [11] | half-life [12] | IC50 [13] | IC50 [14] | IC50 [15] | IC50 [16] | clearance [17] | IC50 [18] | IC50 [19] | IC50 [20] | also measured
1 | Nc1nccn2c([C@H]3CN(C4CCOCC4)CCO3)nc(-c3ccc(C(=O)Nc4cc(C(F)(F)F)ccn4)cc3F)c12 | 13 nM | 39 nM | 3.1 h | 75% | 21 nM | 399 nM | 113 nM | 132 nM | 0.59 to 0.6 nM | 23 mL/min/kg | 60 nM | 1.1 h | 65 nM | 112 nM | 200 nM | 248 nM | 5.9 mL/min/kg | 50 nM | 191 nM | 76 nM | IC50 [21]: 665 nM; IC50 [22]: 282 nM
2 | COCC(=O)N1CCO[C@@H](c2nc(-c3ccc(C(=O)Nc4cc(C(F)(F)F)ccn4)cc3F)c3c(N)nccn23)C1 | 14 nM | 69 nM | 2.5 h | 42% | 28 nM | 268 nM | 77 nM | 214 nM | 0.37 to 0.4 nM | 8.2 mL/min/kg | 73 nM | 0.8 h | 76 nM | 123 nM | 331 nM | 571 nM | 13.8 mL/min/kg | 78 nM | 232 nM | 169 nM | Ratio IC50 (Homo sapiens [23]): 1540; Ratio IC50 (Homo sapiens [24]): 2230; Ratio IC50 (Homo sapiens [25]): 209; Ratio IC50 (Homo sapiens [26]): 187; Ratio IC50 (Homo sapiens [27]): 626; IC50 [28]: 24000 nM; Ratio IC50 (Homo sapiens [29]): 578; Ratio IC50 (Homo sapiens [30]): 205; Ratio IC50 (Homo sapiens [31]): 457; Ratio IC50 (Homo sapiens [32]): 723; Ratio IC50 (Homo sapiens [33]): 212; Ratio IC50 (Homo sapiens [34]): 198; Ratio IC50 (Homo sapiens [35]): 333; Ratio IC50 (Homo sapiens [36]): 691; IC50 [21]: 626 nM; Ratio IC50 (Homo sapiens [37]): 75; IC50 [22]: 256 nM; Ratio IC50 (Homo sapiens [38]): 895
